Reference: patent publication US7045343B2, “Sterilization indicator test packs” (3M Innovative Properties Company, priority 1998, dated 2006)

Legend:
[1] = tested on: Bacillus stearothermophilus spores; test: Spore outgrowth (color change) of indicators after hydrogen peroxide plasma sterilization; assay type: cell-based; conditions: 1–22 min diffusion
Description: Sterilization indicators for Examples 6–9 were prepared as described above with the exception that closure member 22 of the sterilization indicator was constructed of TYVEK™ high-density polyethylene fiber material, commercially available from E.I. du Pont de Nemours and Co., Wilmington, Del.
(§1) Sterilization indicators were made as described above with spores that had been coated with each of the chemicals and concentrations listed in Table 6. The indicators were placed in instrument trays and exposed to a hydrogen peroxide plasma sterilization procedure at 45–55° C. in a STERRAD™ 100SI GMP Sterilizer, obtained from Advanced Sterilization Products Co., Irvine, Calif. During the sterilization procedure a vacuum was drawn in the sterilization chamber for 5–6 minutes until the pressure was reduced to 300 mTorr. A 1.8 ml aliquot of an aqueous solution of 58–60% hydrogen peroxide was then injected into the sterilization chamber over a period of about 6 minutes, yielding an empty chamber concentration of […] hydrogen peroxide, and hydrogen peroxide vapor was allowed to diffuse throughout the chamber for 1–22 minutes at 6–10 Torr. A vacuum was then drawn, reducing the pressure to 500 mTorr and removing all detectable hydrogen peroxide vapor from the chamber.
After exposure to the sterilization procedure, the indicators were removed from the sterilizer and the inner containers containing the enzyme substrate and nutrient medium were crushed. The indicators were then incubated at 60° C. and examined for fluorescence every hour for 5 hours using a 3M™ ATTEST™ Model 190 Rapid Autoreader, commercially available from 3M Company, St. Paul, Minn. Additionally, spore growth, as indicated by a color change from purple to yellow, was determined visually after 168 hours of incubation.
The number of growth positive indicators detected after 168 hours of incubation is recorded in Table 6.
as §1, with “7.” for “6.”
as §1, with “8.” for “6.”, “chamber. […]” for “chamber.”

[2] = tested on: enzyme associated with Bacillus stearothermophilus spores; test: Rapid enzyme fluorescence readout of indicators after hydrogen peroxide plasma sterilization; assay type: biochemical; conditions: for FLUORESCENCE - PERCENT POSITIVE 1 HR / FLUORESCENCE - PERCENT POSITIVE 2 HR / FLUORESCENCE - PERCENT POSITIVE 3 HR / FLUORESCENCE - PERCENT POSITIVE 4 HR / FLUORESCENCE - PERCENT POSITIVE 5 HR: 1–22 min diffusion;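 for FLUORESCENCE - PERCENT POSITIVE 5 HR: percent of growth-positive indicators that were also fluorescence-positive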
Method in brief: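 Indicators with a TYVEK closure held spores coated with various chemicals and were exposed to hydrogen peroxide plasma at 45–55 °C: 6–7 mg/ml chamber peroxide, diffusing 1–22 min at 6–10 Torr. Enzyme fluorescence was read hourly for 5 h at 60 °C. Growth was scored visually as a purple-to-yellow change after 168 h.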

With Decaglyceryl Decaoleate as the substance, how does the “NO. GROWTH POSITIVE 168 HR” value ([1]; Example 6, 10 mg/ml coating) read?
The value was 49.

What about the “NO. GROWTH POSITIVE 168 HR” value ([1]; Example 7, 10 mg/ml coating) of the same substance?
The value was 49.

What about the “NO. GROWTH POSITIVE 168 HR” value ([1]; Example 9, 5 mg/ml coating) of the same substance?
The value was 35.

And the “NO. GROWTH POSITIVE 168 HR” value ([1]; Example 9, 7.5 mg/ml coating)?
Its value is 35.

And the “NO. GROWTH POSITIVE 168 HR” value ([1]; Example 9, 10 mg/ml coating)?
The value was 49.

What about the “NO. GROWTH POSITIVE 168 HR” value ([1]; Example 9, 50 mg/ml coating) of the same substance?
The value was 21.

And the “NO. GROWTH POSITIVE 168 HR” value ([1]; Example 9, 100 mg/ml coating)?
Its value is 30.

And the “accuracy of sterilization indicators compared to indicators made with untreated spores” value ([2]; 1–3 hours after exposure)?
Its value is “improved”.

And the “accuracy of sterilization indicators compared to indicators made with untreated spores” value ([2]; 2–3 hours after exposure)?
Its value is “improved”.

And the “accuracy of sterilization indicators compared to indicators made with untreated spores” value ([2]; 2–3 hours after exposure, concentrations of 5–100 mg/ml)?
Its value is “improved”.

What about the “FLUORESCENCE - PERCENT POSITIVE 1 HR” value ([2]; Example 6, 10 mg/ml coating) of the same substance?
Its value is 83.7%.

What about the “FLUORESCENCE - PERCENT POSITIVE 2 HR” value ([2]; Example 6, 10 mg/ml coating) of the same substance?
The value was 100%.

What about the “FLUORESCENCE - PERCENT POSITIVE 3 HR” value ([2]; Example 6, 10 mg/ml coating) of the same substance?
Its value is 100%.

And the “FLUORESCENCE - PERCENT POSITIVE 4 HR” value ([2]; Example 6, 10 mg/ml coating)?
The value was 100%.

What about the “FLUORESCENCE - PERCENT POSITIVE 5 HR” value ([2]; Example 6, 10 mg/ml coating) of the same substance?
The value was 100%.

What about the “FLUORESCENCE - PERCENT POSITIVE 1 HR” value ([2]; Example 7, 10 mg/ml coating) of the same substance?
Its value is 83.7%.

And the “FLUORESCENCE - PERCENT POSITIVE 2 HR” value ([2]; Example 7, 10 mg/ml coating)?
Its value is 100%.

What about the “FLUORESCENCE - PERCENT POSITIVE 3 HR” value ([2]; Example 7, 10 mg/ml coating) of the same substance?
Its value is 100%.

And the “FLUORESCENCE - PERCENT POSITIVE 4 HR” value ([2]; Example 7, 10 mg/ml coating)?
Its value is 100%.

What about the “FLUORESCENCE - PERCENT POSITIVE 5 HR” value ([2]; Example 7, 10 mg/ml coating) of the same substance?
Its value is 100%.

What about the “FLUORESCENCE - PERCENT POSITIVE 1 HR” value ([2]; Example 9, 5 mg/ml coating) of the same substance?
Its value is 65.7%.

And the “FLUORESCENCE - PERCENT POSITIVE 2 HR” value ([2]; Example 9, 5 mg/ml coating)?
The value was 100%.

And the “FLUORESCENCE - PERCENT POSITIVE 3 HR” value ([2]; Example 9, 5 mg/ml coating)?
The value was 100%.

What about the “FLUORESCENCE - PERCENT POSITIVE 4 HR” value ([2]; Example 9, 5 mg/ml coating) of the same substance?
The value was 100%.

What about the “FLUORESCENCE - PERCENT POSITIVE 5 HR” value ([2]; Example 9, 5 mg/ml coating) of the same substance?
The value was 100%.

What about the “FLUORESCENCE - PERCENT POSITIVE 1 HR” value ([2]; Example 9, 7.5 mg/ml coating) of the same substance?
Its value is 83.5%.

What about the “FLUORESCENCE - PERCENT POSITIVE 2 HR” value ([2]; Example 9, 7.5 mg/ml coating) of the same substance?
Its value is 100%.

What about the “FLUORESCENCE - PERCENT POSITIVE 3 HR” value ([2]; Example 9, 7.5 mg/ml coating) of the same substance?
Its value is 100%.

What about the “FLUORESCENCE - PERCENT POSITIVE 4 HR” value ([2]; Example 9, 7.5 mg/ml coating) of the same substance?
The value was 100%.

And the “FLUORESCENCE - PERCENT POSITIVE 5 HR” value ([2]; Example 9, 7.5 mg/ml coating)?
Its value is 100%.

And the “FLUORESCENCE - PERCENT POSITIVE 1 HR” value ([2]; Example 9, 10 mg/ml coating)?
Its value is 83.7%.

What about the “FLUORESCENCE - PERCENT POSITIVE 2 HR” value ([2]; Example 9, 10 mg/ml coating) of the same substance?
Its value is 100%.

And the “FLUORESCENCE - PERCENT POSITIVE 3 HR” value ([2]; Example 9, 10 mg/ml coating)?
The value was 100%.

And the “FLUORESCENCE - PERCENT POSITIVE 4 HR” value ([2]; Example 9, 10 mg/ml coating)?
The value was 100%.

And the “FLUORESCENCE - PERCENT POSITIVE 5 HR” value ([2]; Example 9, 10 mg/ml coating)?
Its value is 100%.

And the “FLUORESCENCE - PERCENT POSITIVE 1 HR” value ([2]; Example 9, 50 mg/ml coating)?
Its value is 85.0%.

And the “FLUORESCENCE - PERCENT POSITIVE 2 HR” value ([2]; Example 9, 50 mg/ml coating)?
Its value is 90.2%.

What about the “FLUORESCENCE - PERCENT POSITIVE 3 HR” value ([2]; Example 9, 50 mg/ml coating) of the same substance?
Its value is 100%.

What about the “FLUORESCENCE - PERCENT POSITIVE 4 HR” value ([2]; Example 9, 50 mg/ml coating) of the same substance?
The value was 100%.

And the “FLUORESCENCE - PERCENT POSITIVE 5 HR” value ([2]; Example 9, 50 mg/ml coating)?
Its value is 100%.

And the “FLUORESCENCE - PERCENT POSITIVE 1 HR” value ([2]; Example 9, 100 mg/ml coating)?
The value was 73.3%.

And the “FLUORESCENCE - PERCENT POSITIVE 2 HR” value ([2]; Example 9, 100 mg/ml coating)?
The value was 86.7%.

And the “FLUORESCENCE - PERCENT POSITIVE 3 HR” value ([2]; Example 9, 100 mg/ml coating)?
Its value is 100%.

And the “FLUORESCENCE - PERCENT POSITIVE 4 HR” value ([2]; Example 9, 100 mg/ml coating)?
Its value is 100%.

What about the “FLUORESCENCE - PERCENT POSITIVE 5 HR” value ([2]; Example 9, 100 mg/ml coating) of the same substance?
Its value is 100%.

Which results are given for Decaglyceryl Monostearate?
NO. GROWTH POSITIVE 168 HR ([1]; Example 7, 50 mg/ml coating): 59; FLUORESCENCE - PERCENT POSITIVE 1 HR ([2]; Example 7, 50 mg/ml coating): 64.4%; FLUORESCENCE - PERCENT POSITIVE 2 HR ([2]; Example 7, 50 mg/ml coating): 83.0%; FLUORESCENCE - PERCENT POSITIVE 3 HR ([2]; Example 7, 50 mg/ml coating): 89.8%; FLUORESCENCE - PERCENT POSITIVE 4 HR ([2]; Example 7, 50 mg/ml coating): 91.3%; FLUORESCENCE - PERCENT POSITIVE 5 HR ([2]; Example 7, 50 mg/ml coating): 91.3%
